Key:
[1] = Rat Forced Swim Test (FST); assay type: in vivo
Description: The Forced Swim Test (FST) is a classic, and the most used preclinical behavioral assay to screen compounds with antidepressant-like activity and has high predictive and face validity (Porsolt et al. (1977) Nature 266:730; Borsini and Meli (1988) Psychopharmacology 94:147). The premise of the FST is that when rats are placed into a cylinder filled with water, they will initially try to escape, but over time will become immobile. This increased immobility reflects behavioral despair, modeling a depressive-like state.
Forced Swim Test (EST): In the FST trial, rats were placed in a circular plexiglass container filled with water, with no means of escape. Water temperature was maintained at 22-25° C. and changed for every animal. After an acclimation period, rats were timed for inactivity (failure to struggle), activity, swim time and climbing time. Day 1 consisted of a 15 min acclimation trial, and Day 2 (24 h later) consisted of the 5 min test. A time sampling procedure was employed where animals were observed every 5 sec and scored for immobility, swimming, or climbing. Fluoxetine (10 mg/kg, IP, Sigma Aldrich) or 0.9% sterile saline vehicle (vehicle 3× group) were administered 23.5, 5, and 1 h before testing in the FST. […] The experimenter was blinded to treatment.
Forced Swim Test: In the FST trial, rats were placed in a circular plexiglass container filled with water, with no means of escape. Water temperature was maintained at 22-25° C. and changed for every animal. After an acclimation period, rats were timed for inactivity (failure to struggle), activity, swim time and climbing time. Day 1 consisted of a 15 min acclimation trial, and Day 2 (24 h later) consisted of the 5 min test. A time sampling procedure was employed where animals were observed every 5 sec and scored for immobility, swimming, or climbing. Fluoxetine (10 mg/kg, IP, Sigma Aldrich) or 0.9% sterile saline vehicle (vehicle 3× group) were administered 23.5, 5, and 1 h before testing in the FST. 2C-B (2.5, 10, or 20 mg/kg, IP, Cayman Chemical) or 0.9% saline vehicle (vehicle 1× group) were administered 30 min prior to FST testing. The experimenter was blinded to treatment.
Drug Treatment: Fluoxetine (10 mg/kg, IP, Sigma Aldrich) or 0.9% sterile saline vehicle were administered 23.5, 5, and 1 h before testing in the FST. […] Control animals received fluoxetine alone, methylone alone, or saline vehicle.
Forced Swim Test: In the FST trial, rats were placed in a circular plexiglass container filled with water, with no means of escape. Water temperature was maintained at 22-25° C. and changed for every animal. After an acclimation period, rats were timed for inactivity (failure to struggle), activity, swim time and climbing time. The experimenter and scorer were blind to treatment group. Day 1 consisted of a 15 min acclimation trial, and Day 2 (24 h later) consisted of the 5 min test. A time sampling procedure was employed where animals were observed every 5 sec and scored for immobility, swimming, or climbing.
The FST was performed and scored by an experimenter blind to treatment group according to standard protocols and based on a “modified FST” procedure (Slattery and Cryan (2012) Nat Protoc, 7:1009). Briefly, rats were placed in a circular plexiglass container (29.2 cm diameter, 49.5 cm height) filled with water to a depth of 30 cm so rats could not support themselves by touching the bottom of the tank. Water was maintained at 22-25° C. and was changed for every animal. Day 1 (Training) consisted of a 15 min acclimation trial, and Day 2 (Testing, 24 h later) consisted of the 5 min test. A time sampling procedure was employed where animals were observed every 5 seconds for the duration of the test session (60 counts or 5 minutes) and scored for immobility (defined as the failure to struggle), swimming (defined as a circular movement around the tank), or climbing (defined as an upwards escape behavior). […]

[2] = biological target: Human serotonin 5HT2B receptor (Homo sapiens, UniProt P41595); experiment: Competitive radioligand binding to 5HT2B receptor membranes
Human serotonin 5HT2B receptor, sequence (P41595 whole entry): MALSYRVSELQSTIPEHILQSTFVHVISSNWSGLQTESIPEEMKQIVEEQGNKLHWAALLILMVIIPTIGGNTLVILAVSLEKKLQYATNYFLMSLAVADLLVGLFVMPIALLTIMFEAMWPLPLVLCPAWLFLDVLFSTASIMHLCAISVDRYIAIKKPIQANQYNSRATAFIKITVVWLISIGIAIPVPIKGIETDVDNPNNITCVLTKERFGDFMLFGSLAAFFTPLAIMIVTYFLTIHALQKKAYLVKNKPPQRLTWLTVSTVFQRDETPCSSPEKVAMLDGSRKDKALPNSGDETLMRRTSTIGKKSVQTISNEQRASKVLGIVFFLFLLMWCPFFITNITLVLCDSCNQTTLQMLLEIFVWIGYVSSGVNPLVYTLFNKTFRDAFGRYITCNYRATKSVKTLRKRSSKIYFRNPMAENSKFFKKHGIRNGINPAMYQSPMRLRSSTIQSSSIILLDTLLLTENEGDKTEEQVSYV
Procedure: Human serotonin 5HT2B receptor membrane preparations were divided into aliquots. On the day of the assay, membranes were diluted at 1:200 in incubation buffer. […] To each well was added 150 μL membrane preparation, 50 μL test compound, non-specific compound, or buffer alone, as well as 50 μL radioligand. The plate was incubated at 35° C. for 90 minutes with gentle agitation. […] For each concentration of drug, non-specific binding was subtracted from total binding to give specific binding. […] Ki was subsequently calculated using the ChengPrusoff equation.

[3] = previous reports (Hibicke 2020; Yang 2013; Tizabi 2012); cited from earlier work
[4] = Reserpine-induced fibromyalgia model, vonFrey test; assay type: in vivo, rat; details: 2C-B 10 and 20 mg/kg; 60-min post-injection
Procedure: In this Example, male Sprague Dawley rats are tested in a behavioral model of FMA based on the protocol from Nakagura et al. (2009) Pain 146:26. This model uses three daily doses of reserpine (1 mg/kg, SC) or 0.5% acetic acid vehicle to reduce pain thresholds (i.e., increase pain perception) in the Von Frey Test (vFT, procedure outlined below).
Von Frey Test (vFT) procedure: Increasing pain thresholds in this test are consistent with a reduction in pain perception. Prior to the start of dosing, rats are tested for their baseline mechanical pain threshold. For von Frey measurements, animals are placed into wire bottom cubicles with opaque Plexiglas walls, allowing access to the underside of their paws. Animals are habituated to this environment for at least 30 minutes before the start of the von Frey filament application. Static allodynia is measured using Semmes-Weinstein von Frey filaments (Stoelting, Wood Dale, IL). Mechanical allodynia is tested by touching the plantar surface of the animals' left and right hind paws with von Frey filaments which deliver a calibrated amount of force. Each von Frey filament is presented perpendicularly to the plantar surface for approximately 6 seconds of constant application in either ascending or descending strength in a modified up-and-down method (Chaplan et al. (1994) J Neurosci. Meth. 53:55). Stimulation is presented at intervals of several seconds, allowing for apparent resolution of any behavioral responses to previous stimuli. A positive response is noted if the paw is sharply withdrawn. Flinching immediately upon removal of the hair is also considered a positive response. Ambulation is considered an ambiguous response, and, in such cases, the stimulus is repeated.
VonFrey measurements: Animals were placed into wire bottom cubicles with opaque Plexiglas walls, allowing access to the underside of their paws. […] Static allodynia was measured using Semmes-Weinstein von Frey filaments (Stoelting, Wood Dale, IL). […] The average hindpaw thresholds were determined 60-min post-injection. […]

[5] = Cisplatin chemotherapy-induced peripheral neuropathy (CIPN) model, VonFrey test; assay type: in vivo, mouse
Procedure: Methods: Male C57Bl/6 mice aged 12-16 weeks were used. Cisplatin (2.5 mg/kg) or vehicle was administered on days 1-5 and 11-15.
Vehicle, sub-chronic 2C-B (5 mg/kg once daily days 17-23) or acute 2C-B (20 mg/kg once on day 17) was then administered IP (N=16-18/group). VonFrey testing took place on day 17 (30 min post-dose) and days 21 and 24 (pre-dose) to monitor the effects of 2C-B in cisplatin treated animals, compared with animals receiving cisplatin+vehicle or vehicle+vehicle.
For von Frey measurements, animals were placed into wire bottom cubicles with opaque Plexiglas walls, allowing access to the underside of their paws. Animals were habituated to this environment for at least 30 minutes before the start of the von Frey filament application. Static allodynia was measured using Semmes-Weinstein von Frey filaments (Stoelting, Wood Dale, IL). Mechanical allodynia was tested by touching the plantar surface of the animals' right and left hind paws with von Frey filaments which deliver a calibrated amount of force (0.07, 0.16, 0.4, 0.6. 1.0, 2.0, 4.0, 6.0 g). Each von Frey filament was presented perpendicularly to the plantar surface for approximately 6 seconds of constant application in either ascending or descending strength in a modified up-and-down method (Chaplan et al. (1994) J Neurosci. Meth. 53:55). […]

5-HT/5-HIAA uptake sites = details: (±)-MBDB·HCl 25 mg/kg IP every 12 hours for 4 days; cited from earlier work
Open field test (OFT) = assay type: in vivo, rat; details: 0.5-30 mg/kg IP, 30 minutes before 30-min test
Procedure: Method: Consecutive beam breaks and/or video-tracking of time spent in the center versus periphery of the open field are measured. Also measured are parameters such as distance traveled and ambulatory activity (horizontal and vertical) for the duration of the test session.
The open field test (OFT) capitalizes on a rodent's innate fear of open spaces to assess anxiety-like behavior. More time spent in the center of an open field reflects an anxiolytic (anti-anxiety) effect.
Locomotor activity was also measured in the OFT.
To investigate whether MBDB has an anti-anxiety (anxiolytic) effect, rats were dosed with MBDB (0.5-30 mg/kg, IP) or vehicle (saline) and 30-minutes later were tested in the open field for 30 minutes. This anxiety test capitalizes on a rodents' innate fear of wide-open spaces and propensity to hug the walls when placed into the open field. Therefore, a drug that increases the time spent in the center of the open field has anxiolytic activity and predicts utility for treating anxiety in humans.

[6] = Mouse fear extinction paradigm (PTSD model); assay type: in vivo; details: 5 mg/kg IP, day 2
Description: (FIG. 9A) Schematic of experimental design. A single CS-US (tone-shock) pairing on day 1 was followed by 6 CS presentations in a novel context (context B). […] On day 3, the time spent freezing to the CS was quantified. […] (FIG. 9C) No locomotor changes were observed on day 3 (t(26)=1.073, p>0.05). Data are mcan+/−SEM.
FIGS. 10A-10B: MBDB improves fear extinction in a PTSD mouse model. A single CS-US (tone-shock) pairing on day 1 was followed by 6 conditioned stimulus (CS) presentations in a novel context (context B). MBDB or saline vehicle was injected 30 min prior to extinction training on day 2. The time spent freezing to the CS was quantified on day 2. […] Data are mean+/−SEM. N=10 for MBDB group (5 mg/kg, IP) and N=16 for saline control group. **p<0.01 vs. vehicle control group.
Effective PTSD treatments facilitate the disassociation between a traumatic memory and the patient's fear response, making cues for the traumatic memory evoke less of a fear response. This is modeled in the mouse fear extinction paradigm (see FIG. 9A) which takes place over 3 days. […] On day 3 (extinction recall), the mice are “asked” if that tone (CS) still elicits a fearful response, as measured by the time spent freezing when the tone is presented. […]

## CNCCC(Oc1ccc(C(F)(F)F)cc1)c1ccccc1 (stereo not shown) [fluoxetine, reference compound]
[1]; doses as worded
  Swimming behavior: significantly increased swimming behavior

## CC(N)Cc1ccc2c(c1)OCO2 (stereo not shown) [MDA, reference compound]
[2]
  Times greater affinity for the 5HT2B receptor compared with methylone: 37 times

## CCN(CC)C(=O)[C@@H]1C=C2c3cccc4[nH]cc(c34)C[C@H]2N(C)C1 [LSD, lysergic acid-N,N-diethylamide]
[3]
  Reduction in immobility in the FST: 38%

## COc1cc(CCN)c(OC)cc1Br [2C-B, 4-Bromo-2,5-dimethoxyphenethylamine]
[4]
  Animals with maximal (complete) reversal of reserpine-induced pain sensitivity: 100%
[5]; 5 mg/kg once daily days 17-23
  Effect of repeated doses: sustained beneficial effect
[5]; single dose 5 or 20 mg/kg IP, day 17
  Pain thresholds in cisplatin-treated animals: Pain thresholds were significantly increased within 30 min of a single dose
[1]; doses as worded
  Climbing behavior: Climbing was significantly decreased only in the high-dose group
  Swimming behavior: significant increase in swimming

## CCC(Cc1ccc2c(c1)OCO2)NC (racemic) [MBDB, N-methyl-1-(1,3-benzodioxol-5-yl)-2-aminobutane]
5-HT/5-HIAA uptake sites
  Serotonergic terminals in cortex and hippocampus destroyed: 55-60%
Open field test (OFT)
  Increase in time spent in the center vs. control: ~40%
[1]; 5-30 mg/kg IP, 30 min before test
  Immobility: significantly reduced immobility
[6]
  Extinction acquisition: improved extinction acquisition on the first trial of extinction training on day 2

## CNCC[C@H](Oc1cccc2ccccc12)c1cccs1 [Duloxetine, reference compound]
[4]
  Animals with maximal (complete) reversal of reserpine-induced pain sensitivity: 44%
